According to patent publication US8691991B2 (priority 2004, dated 2014):

Each compound was assayed on Pseudotyped HIV vector (assay: Pseudotyped HIV vector expressing luciferase reporter assay). Conditions: Human immunodeficiency virus 1.
Format: cell-based
Experimental: Pseudotyped HIV Vector Expressing Luciferase Reporter Assay
Expression of luciferase reporter following viral integration was performed essentially as described in Jármy, G. et al., J. Medical Virology, 64:223-231, 2001.
Compound COCCN(C)C(=O)Cn1c(=O)c(C(=O)NC(C)CO)c(O)c2ncc(Cc3ccc(F)cc3)cc21 (racemic) [Example 105, (±)-7-[(4-Fluorophenyl)methyl]-4-hydroxy-N-[2-hydroxy-1-methylethyl]-1-(2-{methyl[2-(methyloxy)ethyl]amino}-2-oxoethyl)-2-oxo-1,2-dihydro-1,5-naphthyridine-3-carboxamide] has an IC50 of less than 10 nM.
COCCN(C)C(=O)Cn1c(=O)c(C(=O)NCC(C)O)c(O)c2ncc(Cc3ccc(F)cc3)cc21 (racemic) [Example 106, (±)-7-[(4-Fluorophenyl)methyl]-4-hydroxy-N-[(2-hydroxypropyl]-1-(2-{methyl[2-(methyloxy)ethyl]amino}-2-oxoethyl)-2-oxo-1,2-dihydro-1,5-naphthyridine-3-carboxamide] showed an IC50 of less than 10 nM.
COCCNC(=O)c1c(O)c2ncc(Cc3ccc(F)cc3)cc2[nH]c1=O [Example 2, 7-(4-Fluorobenzyl)-4-hydroxy-N-(2-methoxyethyl)-2-oxo-1,2-dihydro-1,5-naphthyridine-3-carboxamide] showed an IC50 of less than 10 nM.
With O=C(NC1CC1)c1c(O)c2ncc(Cc3ccc(F)cc3)cc2n(CCN2CCCC2=O)c1=O [Example 9, N-Cyclopropyl-7-(4-fluorobenzyl)-4-hydroxy-2-oxo-1-[2-(2-oxopyrrolidin-1-yl)ethyl]-1,2-dihydro-1,5-naphthyridine-3-carboxamide] the IC50 was less than 10 nM.
O=C(NCCN1CCOCC1)c1c(O)c2ncc(Cc3ccc(F)cc3)cc2n(CCN2CCCC2=O)c1=O [Example 10, 7-(4-Fluorobenzyl)-4-hydroxy-N-(2-morpholin-4-ylethyl)-2-oxo-1-[2-(2-oxopyrrolidin-1-yl)ethyl]-1,2-dihydro-1,5-naphthyridine-3-carboxamide] gave an IC50 of less than 10 nM.
Work on COCCNC(=O)c1c(O)c2ncc(Cc3ccccc3)cc2n(CC(=O)N2CCOCC2)c1=O [Example 12] yielded an IC50 of less than 10 nM.
In the case of COCCNC(=O)c1c(O)c2ncc(Cc3ccccc3)cc2[nH]c1=O [Example 17], the IC50 is reported as 10 to 25 nM.
Work on O=C(NCCCN1CCCC1=O)c1c(O)c2ncc(Cc3ccc(F)cc3)cc2[nH]c1=O [Example 28] yielded an IC50 of less than 10 nM.
Compound O=C(NCCN1CCOCC1)c1c(O)c2ncc(Cc3ccc(F)cc3)cc2[nH]c1=O [Example 36, 7-[(4-Fluorophenyl)methyl]-4-hydroxy-N-[2-(4-morpholinyl)ethyl]-2-oxo-1,2-dihydro-1,5-naphthyridine-3-carboxamide] has an IC50 of less than 10 nM.
Work on COCCNC(=O)c1c(O)c2ncc(Cc3ccccc3)cc2n(Cc2ccc(S(C)(=O)=O)cc2)c1=O [Example 45, 7-Benzyl-4-hydroxy-N-(2-methoxyethyl)-1-[4-(methylsulfonyl)benzyl]-2-oxo-1,2-dihydro-1,5-naphthyridine-3-carboxamide] yielded an IC50 of less than 10 nM.
Work on COCCNC(=O)c1c(O)c2ncc(Cc3ccc(F)cc3)cc2n(CCN2CCCC2=O)c1=O [Example 49, 7-(4-Fluorobenzyl)-4-hydroxy-N-(2-methoxyethyl)-2-oxo-1-[2-(2-oxopyrrolidin-1-yl)ethyl]-1,2-dihydro-1,5-naphthyridine-3-carboxamide] yielded an IC50 of less than 10 nM.
With COCCNC(=O)c1c(O)c2ncc(Cc3ccccc3)cc2n(Cc2nccn2C)c1=O [Example 50, 7-Benzyl-4-hydroxy-N-(2-methoxyethyl)-1-[(1-methyl-1H-imidazol-2-yl)methyl]-2-oxo-1,2-dihydro-1,5-naphthyridine-3-carboxamide] the IC50 was less than 10 nM.
With COCCNC(=O)c1c(O)c2ncc(Cc3ccccc3)cc2n(CC2CC2)c1=O [Example 54, 7-Benzyl-1-(cyclopropylmethyl)-4-hydroxy-N-(2-methoxyethyl)-2-oxo-1,2-dihydro-1,5-naphthyridine-3-carboxamide] the IC50 was less than 10 nM.
Work on COCCNC(=O)c1c(O)c2ncc(Cc3ccccc3)cc2n(Cc2nccs2)c1=O [Example 62, 7-Benzyl-4-hydroxy-N-(2-methoxyethyl)-2-oxo-1-(1,3-thiazol-2-ylmethyl)-1,2-dihydro-1,5-naphthyridine-3-carboxamide] yielded an IC50 of less than 10 nM.
Work on COCCNC(=O)c1c(O)c2ncc(Cc3ccc(F)cc3)cc2n(Cc2ccc(S(C)(=O)=O)cc2)c1=O [Example 64, 7-(4-Fluorobenzyl)-4-hydroxy-N-(2-methoxyethyl)-1-[4-(methylsulfonyl)benzyl]-2-oxo-1,2-dihydro-1,5-naphthyridine-3-carboxamide] yielded an IC50 of less than 10 nM.
O=C(NCCN1CCOCC1)c1c(O)c2ncc(Cc3ccc(F)cc3)cc2n(CC(=O)N2CCOCC2)c1=O [Example 83, 7-[(4-Fluorophenyl)methyl]-4-hydroxy-N-[2-(4-morpholinyl)ethyl]-1-[2-(4-morpholinyl)-2-oxoethyl]-2-oxo-1,2-dihydro-1,5-naphthyridine-3-carboxamide] showed an IC50 of 10 to 25 nM.
COCCNC(=O)c1c(O)c2ncc(Cc3ccc(F)cc3)cc2n(CC(=O)N2CCOCC2)c1=O [Example 84, 7-[(4-Fluorophenyl)methyl]-4-hydroxy-N-[2-(methyloxy)ethyl]-1-[2-(4-morpholinyl)-2-oxoethyl]-2-oxo-1,2-dihydro-1,5-naphthyridine-3-carboxamide] gave an IC50 of less than 10 nM.
CC(C)(CO)CNC(=O)c1c(O)c2ncc(Cc3ccc(F)cc3)cc2[nH]c1=O [Example 85, 7-[(4-Fluorophenyl)methyl]-4-hydroxy-N-(3-hydroxy-2,2-dimethylpropyl)-2-oxo-1,2-dihydro-1,5-naphthyridine-3-carboxamide] showed an IC50 of less than 10 nM.
In the case of O=C(NCCOCCO)c1c(O)c2ncc(Cc3ccc(F)cc3)cc2[nH]c1=O [Example 86, 7-[(4-Fluorophenyl)methyl]-4-hydroxy-N-{2-[(2-hydroxyethyl)oxy]ethyl}-2-oxo-1,2-dihydro-1,5-naphthyridine-3-carboxamide], the IC50 is reported as less than 10 nM.
In the case of COCCNC(=O)c1c(O)c2ncc(Cc3ccc(F)cc3)cc2n(CC(=O)N(C)C)c1=O [Example 89, 1-[2-(Dimethylamino)-2-oxoethyl]-7-[(4-fluorophenyl)methyl]-4-hydroxy-N-[2-(methyloxy)ethyl]-2-oxo-1,2-dihydro-1,5-naphthyridine-3-carboxamide], the IC50 is reported as less than 10 nM.
CN(C)C(=O)Cn1c(=O)c(C(=O)NCCN2CCOCC2)c(O)c2ncc(Cc3ccc(F)cc3)cc21 [Example 91, 1-[2-(Dimethylamino)-2-oxoethyl]-7-[(4-fluorophenyl)methyl]-4-hydroxy-N-[2-(4-morpholinyl)ethyl]-2-oxo-1,2-dihydro-1,5-naphthyridine-3-carboxamide] showed an IC50 of 10 to 25 nM.
With O=C(NCCCN1CCOCC1)c1c(O)c2ncc(Cc3ccc(F)cc3)cc2n(CC(=O)N2CCOCC2)c1=O [Example 93, 7-[(4-Fluorophenyl)methyl]-4-hydroxy-1-[2-(4-morpholinyl)-2-oxoethyl]-N-[3-(4-morpholinyl)propyl]-2-oxo-1,2-dihydro-1,5-naphthyridine-3-carboxamide] the IC50 was 10 to 25 nM.
O=C(NCCCN1CCCC1=O)c1c(O)c2ncc(Cc3ccc(F)cc3)cc2n(CC(=O)N2CCOCC2)c1=O [Example 94, 7-[(4-Fluorophenyl)methyl]-4-hydroxy-1-[2-(4-morpholinyl)-2-oxoethyl]-2-oxo-N-[3-(2-oxo-1-pyrrolidinyl)propyl]-1,2-dihydro-1,5-naphthyridine-3-carboxamide] gave an IC50 of 10 to 25 nM.
In the case of O=C(NCCO)c1c(O)c2ncc(Cc3ccc(F)cc3)cc2n(CC(=O)N2CCOCC2)c1=O [Example 95, 7-[(4-Fluorophenyl)methyl]-4-hydroxy-N-(2-hydroxyethyl)-1-[2-(4-morpholinyl)-2-oxoethyl]-2-oxo-1,2-dihydro-1,5-naphthyridine-3-carboxamide], the IC50 is reported as 10 to 25 nM.
With Cn1c(=O)c(C(=O)NCCN2CCOCC2)c(O)c2ncc(Cc3ccc(F)cc3)cc21 [Example 96, 7-[(4-Fluorophenyl)methyl]-4-hydroxy-1-methyl-N-[2-(4-morpholinyl)ethyl]-2-oxo-1,2-dihydro-1,5-naphthyridine-3-carboxamide] the IC50 was less than 10 nM.
Cn1c(=O)c(C(=O)NCCCN2CCOCC2)c(O)c2ncc(Cc3ccc(F)cc3)cc21 [Example 97, 7-[(4-Fluorophenyl)methyl]-4-hydroxy-1-methyl-N-[3-(4-morpholinyl)propyl]-2-oxo-1,2-dihydro-1,5-naphthyridine-3-carboxamide] was tested, and the IC50 was less than 10 nM.
Compound COCCNC(=O)c1c(O)c2ncc(Cc3ccc(F)cc3)cc2n(C)c1=O [Example 98, 7-[(4-Fluorophenyl)methyl]-4-hydroxy-1-methyl-N-[2-(methyloxy)ethyl]-2-oxo-1,2-dihydro-1,5-naphthyridine-3-carboxamide] has an IC50 of less than 10 nM.
Cn1c(=O)c(C(=O)NCCCN2CCCC2=O)c(O)c2ncc(Cc3ccc(F)cc3)cc21 [Example 99, 7-[(4-Fluorophenyl)methyl]-4-hydroxy-1-methyl-2-oxo-N-[3-(2-oxo-1-pyrrolidinyl)propyl]-1,2-dihydro-1,5-naphthyridine-3-carboxamide] was tested, and the IC50 was less than 10 nM.
Cn1c(=O)c(C(=O)NCCO)c(O)c2ncc(Cc3ccc(F)cc3)cc21 [Example 101, 7-[(4-Fluorophenyl)methyl]-4-hydroxy-N-(2-hydroxyethyl)-1-methyl-2-oxo-1,2-dihydro-1,5-naphthyridine-3-carboxamide] was tested, and the IC50 was less than 10 nM.
COCCNC(=O)c1c(O)c2ncc(Cc3ccc(F)cc3)cc2n(CC(=O)N2CCN(C)CC2)c1=O [Example 102, 7-[(4-Fluorophenyl)methyl]-4-hydroxy-N-[2-(methyloxy)ethyl]-1-[2-(4-methyl-1-piperazinyl)-2-oxoethyl]-2-oxo-1,2-dihydro-1,5-naphthyridine-3-carboxamide] showed an IC50 of less than 10 nM.
Work on COCCNC(=O)c1c(O)c2ncc(Cc3ccc(F)cc3)cc2n(CC(=O)N(C)CCOC)c1=O [Example 104, 7-[(4-Fluorophenyl)methyl]-4-hydroxy-1-(2-{methyl[2-(methyloxy)ethyl]amino}-2-oxoethyl)-N-[2-(methyloxy)ethyl]-2-oxo-1,2-dihydro-1,5-naphthyridine-3-carboxamide] yielded an IC50 of less than 10 nM.
Compound CCOCCNC(=O)c1c(O)c2ncc(Cc3ccc(F)cc3)cc2n(CC(=O)N(C)CCOC)c1=O [Example 107, N-[2-(ethyloxy)ethyl]-7-[(4-fluorophenyl)methyl]-4-hydroxy-1-(2-{methyl[2-(methyloxy)ethyl]amino}-2-oxoethyl)-2-oxo-1,2-dihydro-1,5-naphthyridine-3-carboxamide] has an IC50 of less than 10 nM.
